# Source: US20070293459A1, “Method for Inhibiting Cellular Na+-K+ ATPase Activity” (JASON LIFE TECH INC. LTD., priority 2006, published 2007)
# Columns and labels:
# [1] = tested on: Na^+—K^+ ATPase; assay: Na+-K+ ATPase activity of rat brain cortex plasma membrane (Pi liberated from ATP hydrolysis); type: biochemical; settings: for Na+-K+ ATPase activity (free Pi), MLB compared with ouabain: FIG. 2, various MLB or ouabain concentrations
# Text: (§1) First, Male Sprague-Dawley (NarII: SD) rats (3-month-old) were purchased from National Laboratory Animal Center (Nankang, Taipei) and raised under specific pathogen-free conditions. Animals were provided with rat chow (Rodent Laboratory Chow 5001, Purina, Mo.) and tap water throughout the studies. The rats received humane care in accordance with the guidelines of a guidebook for the care and use of laboratory animals. The animals were sacrificed by decapitation, and the brain and heart organs of the rats were removed immediately after complete exsanguination.
# Next, the plasma membrane was isolated from the rat brain and heart at 4° C. The brain and heart homogenate were prepared respectively with homogenized plasma membrane in 10-20 volumes of […] sucrose solution containing 5.0 mM 4-(2-hydroxyethyl)-1-piperazineethanesulfonic acid (HEPES) and 1.0 mM EDTA, pH7.5. Then, the brain or heart homogenate was centrifuged at 1000×g for 10 min, and kept the resultant supernatant for further centrifuge at 17000×g for 30 min to obtain a crude plasma membrane fraction.
# Then, the fraction was washed and suspended twice in 0.32 M sucrose HEPES-buffer, which was subjected to a discontinuous sucrose density gradient consisting of successive layers of […], and centrifuged at 63000×g for 1 hour. The plasma membrane was collected at the interface between […] sucrose to be further suspended in 0.32 M sucrose solution for enzyme assays within 2 hours.
# Na^+—K^+ ATPase activity was determined by measuring the amount of inorganic phosphate (Pi) liberated from ATP hydrolysis.
# First, commercial Na^+—K^+ ATPase from porcine cerebral cortex (Sigma, 0.3 units/mg) or a purified plasma membrane fraction incorporated into a reaction mixture of 1 ml containing 3 mM ATP, 5 mM MgCl2, 80 mM NaCl, 20 mM KCl, and 40 mM Tris-HCl, pH7.4, was prepared. The enzymatic reaction was terminated 15 min after Na^+—K^+ ATPase incorporation by adding 200 μl of 30% (WN) trichloroacetic acid.
# After centrifugation at 6000 rpm for 15 min, supernatant of 500 μl measured the inorganic phosphate using spectrophotometric methods. Enzyme activity was expressed as μmol Pi liberated from ATP by 1 mg of Na^+—K^+ ATPase during 1 hour. Protein content was quantified using a Bradford protein assay kit (Sigma). For the observation of inhibitory effects on Na^+—K^+ ATPase activity, ouabain or MLB of various concentrations was incubated with commercial Na^+—K^+ ATPase or the purified plasma membrane fraction at 37° C. for 10 min prior to incorporation into the reaction mixture.
# [2] = tested on: cerebral infarct after ischemia-reperfusion; assay: Focal cerebral ischemia-reperfusion (CCA/MCA occlusion) infarct test in gerbils; type: in vivo, gerbil; settings: for cell infarct volume vs control: FIG. 7; for cell infarct size vs control: FIG. 8
# [3] = tested on: Na^+—K^+ ATPase; assay: Na+-K+ ATPase activity of rat myocardium (cardiac) cell membrane (Pi liberated from ATP hydrolysis); type: biochemical; settings: FIG. 5, various MLB concentrations
# Text: as §1
# Next, the plasma membrane was isolated from the rat brain and heart at 4° C. The brain and heart homogenate were prepared respectively with homogenized plasma membrane in 10-20 volumes of […] sucrose solution containing 5.0 mM 4-(2-hydroxyethyl)-1-piperazineethanesulfonic acid (HEPES) and 1.0 mM EDTA, pH7.5. […]
# Na^+—K^+ ATPase activity was determined by measuring the amount of inorganic phosphate (Pi) liberated from ATP hydrolysis. […]
# After centrifugation at 6000 rpm for 15 min, supernatant of 500 μl measured the inorganic phosphate using spectrophotometric methods. Enzyme activity was expressed as μmol Pi liberated from ATP by 1 mg of Na^+—K^+ ATPase during 1 hour. Protein content was quantified using a Bradford protein assay kit (Sigma). […]
# [4] = tested on: cerebral hypoxia caused by sodium nitrite; assay: Rat survival test after sodium nitrite (cerebral hypoxia); type: in vivo; settings: FIG. 6, sodium nitrite 225 mg/kg
# Method: Sodium nitrite will trigger the oxyhemoglobin converts into methemoglobin to cause the hypoxia and cell infract.
# 3-4 week old rats (about 20˜22 g) were randomly divided into three sample groups and one control group, and each group has 5 rats. […] After feeding for 7 days, one hour later of the final feeding, each rat was injected with sodium nitrite (225 mg/kg). Then count time on the spot to record the survival time of rats.
SMILES,"Na+-K+ ATPase activity (free Pi), MLB compared with ouabain ([1]; rat brain cortex)","Na+-K+ ATPase activity (inorganic phosphate liberated from ATP hydrolysis) with increasing concentration ([1]; FIG. 1, rat brain cortex, various MLB concentrations, 37° C. 10 min preincubation)","Na+-K+ ATPase activity (free Pi) of brain cortex cell membrane ([1]; FIG. 4, rat brain cortex cell membrane, various MLB concentrations)",cell infarct volume vs control ([2]; MLB 1.5 mg/Kg intraperitoneally 30 min before reperfusion),cell infarct volume vs control ([2]; MLB 3 mg/Kg intraperitoneally 30 min before reperfusion),cell infarct size vs control ([2]; MLB 0.3 mg/Kg forced oral fed 30 min after reperfusion),cell infarct size vs control ([2]; MLB 3 mg/Kg forced oral fed 30 min after reperfusion),Na+-K+ ATPase activity (free Pi) of cardiac cell membrane [3],survival rate vs control after sodium nitrite ([4]; MLB 3 mg/Kg for 7 days),survival rate vs control after sodium nitrite ([4]; MLB 9 mg/Kg for 7 days),survival rate vs control after sodium nitrite ([4]; MLB 18 mg/Kg for 7 days)
"C[C@@H]1O[C@@H](O[C@H]2C[C@@H](O)[C@]3(CO)[C@H]4[C@H](O)C[C@]5(C)[C@@H](C6=CC(=O)OC6)CC[C@]5(O)[C@@H]4CC[C@]3(O)C2)[C@H](O)[C@H](O)[C@H]1O [ouabain, reference compound]",the amount of free inorganic phosphate (Pi) is dependent on the raised inhibitor (MLB or ouabain) dosage,,,,,,,,,,
"O=C(/C=C/c1ccc(O)c2c1[C@H](C(=O)O[C@H](Cc1ccc(O)c(O)c1)C(=O)[O-])[C@@H](c1ccc(O)c(O)c1)O2)O[C@H](Cc1ccc(O)c(O)c1)C(=O)[O-].[Mg+2] [MLB, magnesium lithospermate B]",the inhibitory behavior of MLB is consistent with the ouabain,the measured free inorganic phosphate (Pi) decreases with increased MLB concentration,the MLB is able to inhibit the Na^+—K^+ ATPase activity of the cortex cell membrane,effective repression of cell infarct,significant (p<0.01) difference from the control group,effective repression of cell infarct,significant (p<0.01) difference from the control group,MLB is able to inhibit the Na^+—K^+ ATPase activity of cardiac cell membranes,significant (p<0.05) increase (two folds),significant (p<0.05) different from the control group,significant (p<0.05) different from the control group
